Reference: ChEMBL document CHEMBL1201862, “PubChem BioAssay data set” (2004)
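Briefly, cells in 96-well plates were exposed to five compound concentrations for 48 h, and endpoints were estimated by linear interpolation. At the GI50, growth is halved.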 Activity calls are given as the source filed them. No stated cut-off is given here; in the data, active = GI50 up to about 1.1 µM and inactive = higher.

Assays:
Assay in all cases: NCI-60 cell line screen, 48 h
[1] = system: K562
[2] = system: UACC-257
[3] = system: OVCAR-4
[4] = system: MDA-MB-231
[5] = system: UACC-62
[6] = system: SN12C
[7] = system: SW-620
[8] = system: BT-549
[9] = system: SK-MEL-28
[10] = system: SF-539
[11] = system: UO-31
[12] = system: MDA-MB-435
[13] = system: SF-295
[14] = system: TK-10
[15] = system: A549
[16] = system: NCI/ADR-RES
[17] = system: 786-0
[18] = system: KM12
[19] = system: OVCAR-8
[20] = system: HCT-15
[21] = system: HCT-116
[22] = system: COLO 205
[23] = system: U-251
[24] = system: MDA-N
[25] = system: SK-OV-3
[26] = system: SR
[27] = system: SNB-75
[28] = system: SNB-19
[29] = system: NCI-H460
[30] = system: HL-60
[31] = system: MOLT-4
[32] = system: OVCAR-5
[33] = system: PC-3
[34] = system: DU-145
[35] = system: LOX IMVI
[36] = system: SK-MEL-5
[37] = system: CCRF-CEM
[38] = system: OVCAR-3
[39] = system: HOP-62
[40] = system: IGROV-1
[41] = system: RPMI-8226
[42] = system: NCI-H23
[43] = system: A498
[44] = system: SF-268
[45] = system: HT-29
[46] = system: MCF7
[47] = system: NCI-H226
[48] = system: Malme-3M
[49] = system: RXF 393
[50] = system: CAKI-1
[51] = system: Hs-578T
[52] = system: SK-MEL-2
[53] = system: M14

SMILES: COc1cc(Cn2c3c(c4cc(O)ccc42)Cc2ccccc2C3=O)cc(OC)c1
- GI50 [1]: 44.7 µM (inactive)
- GI50 [2]: > 100 µM (inactive)
- GI50 [3]: 19.9 µM (inactive)
- GI50 [4]: 31 µM (inactive)
- GI50 [5]: 38.2 µM (inactive)
- GI50 [6]: 24.7 µM (inactive)
- GI50 [7]: 54.5 µM (inactive)
- GI50 [8]: > 100 µM (inactive)
- GI50 [9]: 31.8 µM (inactive)
- GI50 [10]: 37.3 µM (inactive)
- GI50 [11]: > 100 µM (inactive)
- GI50 [12]: 11.9 µM (inactive)
- GI50 [13]: 25.8 µM (inactive)
- GI50 [14]: > 100 µM (inactive)
- GI50 [15]: 74 µM (inactive)
- GI50 [16]: 21.3 µM (inactive)
- GI50 [17]: 58.3 µM (inactive)
- GI50 [18]: 39.2 µM (inactive)
- GI50 [19]: 59.6 µM (inactive)
- GI50 [20]: 33.9 µM
- GI50 [21]: 34.4 µM (inactive)
- GI50 [22]: 28.9 µM (inactive)
- GI50 [23]: 57.3 µM (inactive)
- GI50 [24]: 12 µM (inactive)
- GI50 [25]: > 100 µM (inactive)
- GI50 [26]: 6.46 µM (inactive)
- GI50 [27]: 15.5 µM (inactive)
- GI50 [28]: > 100 µM (inactive)
- GI50 [29]: 62.1 µM (inactive)
- GI50 [30]: > 100 µM (inactive)
- GI50 [31]: 28.9 µM (inactive)
- GI50 [32]: 19.1 µM (inactive)
- GI50 [33]: 56.5 µM (inactive)
- GI50 [34]: 58.1 µM (inactive)
- GI50 [35]: 76.4 µM (inactive)
- GI50 [36]: 35.7 µM (inactive)
- GI50 [37]: 22.6 µM (inactive)
- GI50 [38]: > 100 µM (inactive)
- GI50 [39]: 60.7 µM (inactive)
- GI50 [40]: 44.8 µM (inactive)
- GI50 [41]: 5.62 µM (inactive)
- GI50 [42]: > 100 µM (inactive)
- GI50 [43]: > 100 µM (inactive)
- GI50 [44]: > 100 µM (inactive)
- GI50 [45]: 37.1 µM (inactive)
- GI50 [46]: 20.7 µM (inactive)
- GI50 [47]: > 100 µM (inactive)
- GI50 [48]: 42.1 µM (inactive)
- GI50 [49]: > 100 µM (inactive)
- GI50 [50]: 32.7 µM (inactive)
- GI50 [51]: > 100 µM (inactive)
- GI50 [52]: > 100 µM (inactive)
- GI50 [53]: 68.1 µM (inactive)
